Test results from US10350220B2, “Methods and materials for reducing suppression of immune function” (Mayo Foundation for Medical Education and Research, priority 2011, dated 2019).

System: CD14+ cells co-cultured with a renal cell tumor line (ACHN)
Experiment: HLA-DR expression of isolated CD14+ cells co-cultured with ACHN renal cell tumor line, flow cytometry
Conditions: CD14+ cells exposed to ACHN cancer cells, RU486 5 or 20 μM added day 0; compared with cells exposed to cancer cells and not treated

CC#C[C@]1(O)CC[C@H]2[C@@H]3CCC4=CC(=O)CCC4=C3[C@@H](c3ccc(N(C)C)cc3)C[C@@]21C [RU486, mifepristone]
HLA-DR expression (MFI of HLA-DR staining, FIG. 1): more HLA-DR expression than cells exposed to cancer cells and not treated with RU486
